This note sets out measurements from PubChem BioAssay AID1963852 (Molecular Pharmacology Branch, DTP, NCI, 2024).

Where “and” joins values, the source holds several entries; their conditions need not be identical. Equal entries are not always repeated.

The assay has as its system 282377-053-R-J1-PDC complex spheroid viability. Briefly: Anticancer human tumor 282377-053-R-J1-PDC patient-derived colon adenocarcinoma cell line growth inhibition [POLQ]. The note with it: for viability, T/C: stronger effect = lower value; for IC50: curve of compound. The protocol:
Multicellular complex tumor spheroid response to Polymerase (POL) inhibitors (novobiocin, ART-558, RP6685) in combination with a variety of drugs and investigational agents in selected tumor cell lines
The POL inhibitors (novobiocin, ART-558, and RP6685) were evaluated both individually and in combination with standard of care and investigational anticancer small molecules within a complex spheroid model of solid tumors. . Complex spheroids include a stromal component modeled by human endothelial cells (HUVEC) and fibroblasts modeled by human mesenchymal stem cells (MSCs). The concentration ranges selected for each drug and investigational agent were based upon clinically achievable concentrations if the clinical Cmax of the agent was known.
Compounds. The drugs and investigational agents: novobiocin (NSC847541), ART-558 (NSC835418), RP-6685 (NSC848927), peposertib (NSC802822), ceralasertib (NSC780249), elimusertib (NSC800525), camonsertib (NSC841442), AZD-1390 (NSC803789), olaparib (NSC753686), talazoparib (NSC767125), rucaparib (NSC756644), sotorasib (NSC818433), MRTX-1133 (NSC836407), SN-38 (NSC673596), topotecan (NSC609699), epotoside (NSC141540), doxorubicin (NSC123127), gemcitabine (NSC613327), 5-fluorouracil (NSC19893), paclitaxel (NSC125973), vemurafenib (NSC761431), MSA-2 (NSC828583), SN-011 (NSC837082), adavosertib (NSC754352), prexasertib (NSC758257), carboplatin (NSC241240) and oxaliplatin (NSC266046), were obtained from the National Cancer Institute (NCI) Developmental Therapeutics Program Chemical Repository (21). The FDA-approved anticancer drug set is available from the Developmental Therapeutics Program at https://dtp.cancer.gov/organization/dscb/obtaining/. […] The stock solutions were prepared in dimethyl sulfoxide (DMSO, Sigma-Aldrich, St. Louis, MO, cat. D2650), except for the platinum compounds which were prepared in saline (Quality Biological, Gaithersburg, MD, cat. 114-055-101), at 800-fold the tested concentration and stored at -70 degrees C prior to their use. All drugs and investigational agents were tested over a range starting from a high concentration at or near the clinical Cmax and decreasing in half-log increments. If the clinical Cmax for an agent had not been determined, the highest concentration tested was 10 microM, except for SN-38, which was tested at a high concentration of 1 microM.
Cell Culture. All cells were maintained in an incubator at 37 degrees C and 5% CO2 with 95% humidity. The PDC lines were cultured according to standard operating procedures established by the NCI PDMR (https://pdmr.cancer.gov). Table 3 of the manuscript, lists the cell lines along with the number of the three cell types plated to form the mct-spheroids and media for tumor cell growth. After thawing, all PDC lines, except 997537-175-T-J1-PDC and 415267-285-R-J2-PDC, were cultured in Matrigel-coated flasks prepared with a working solution of 1X Ham's F-12 nutrient mix, without supplementation (Thermo Fisher Scientific, cat. 11765054), 100 U/mL penicillin-streptomycin (Thermo Fisher Scientific, cat. 15140122), and 2.5% Matrigel (Corning Inc., Corning, NY, cat. 354248) for the first three passages. The two PDC lines 997537-175-T-J1-PDC and 415267-285-R-J2-PDC were cultured on uncoated flasks. The 857933-349-R-J2-PDC line was cultured in 6C/Colon 1B media containing advanced DMEM/F-12 (Thermo Fisher Scientific, cat. 12634028), 10 mM HEPES (Thermo Fisher Scientific, cat. 15630080), 1X GlutaMAX supplement (Thermo Fisher Scientific, cat. 35050061), 0.1 mg/mL primocin (InvivoGen, San Diego, CA, cat. ant-pm-2), 10% defined fetal bovine serum, heat inactivated (HyClone Laboratories Inc., Logan, UT, cat. SH30070.03HI), 50% L-WRN conditioned media (ATCC, cat. CRL-3276), 1.25 mM N-Acetyl-L-cysteine (Sigma-Aldrich, cat. A9165), 10 mM nicotinamide (Sigma-Aldrich, cat. N0636), 1X B-27 supplement (Thermo Fisher Scientific, cat. 17504044), 1X N-2 supplement (Thermo Fisher Scientific, cat. […]

Broadly, the viability, T/C is the result in the treated group divided by that in the control group, in per cent. A word on the IC50: it is the concentration at which inhibition is half-maximal.
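Also: spheroids exposed to compounds for seven days.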

In the case of `C=CC(=O)N1CCN(c2nc(=O)n(-c3c(C)ccnc3C(C)C)c3nc(-c4c(O)cccc4F)c(F)cc23)C(C)C1` (stereo not drawn), the IC50 was greater than 10 µM. For the same molecule, under “compound 0.0316 µM”, the viability, T/C is 90.8% and 111% and 101%. Moreover, the viability, T/C (compound 0.1 µM) is 96% and 93.3% and 101%. Further, the viability, T/C (compound 0.316 µM) is 82.7% and 111% and 107%. Besides, the viability, T/C (compound 1 µM) is 82.8% and 111% and 110%. The viability, T/C (compound 3.16 µM) is 94% and 105% and 101%. In addition, the viability, T/C (compound 10 µM) is 78.2% and 87% and 86.5%.

For `C=CCn1c(=O)c2cnc(Nc3ccc(N4CCN(C)CC4)cc3)nc2n1-c1cccc(C(C)(C)O)n1`, the IC50 was greater than 1 µM. Also, the viability, T/C (compound 0.00316 µM) was 107% (2×) and 111%. For the same molecule, the viability, T/C (compound 0.01 µM) is 119% and 95.2% and 85.9%. Also, the viability, T/C (compound 0.0316 µM) is 98% and 116% and 91.7%. Besides, the viability, T/C (compound 0.1 µM) is 103% and 95.6% and 93.7%. Further, where the note is “compound 0.316 µM”, the viability, T/C is 109% and 85.2% and 82.7%. For the same molecule, the viability, T/C (compound 1 µM) is 81.5% and 87.5% and 68.1%.

In the case of `CC(=O)O[C@H]1C(=O)[C@@]2(C)[C@H]([C@H](OC(=O)c3ccccc3)[C@]3(O)C[C@H](OC(=O)[C@H](O)[C@@H](NC(=O)c4ccccc4)c4ccccc4)C(C)=C1C3(C)C)[C@]1(OC(C)=O)CO[C@@H]1C[C@@H]2O`, the viability, T/C runs as follows: (compound 0.00949 µM) 93.6% and 91% and 48.6%; (compound 0.03 µM) 40.4% and 58.8% and 17.8%; (compound 0.0949 µM) 40.3% and 41.6% and 17.4%; (compound 0.3 µM) 42% and 47.9% and 19%; (compound 0.949 µM) 42.7% and 50.8% and 21.5%; (compound 3 µM) 47.6% and 61% and 28.4%.

Take `CC(C)n1c(=O)n(C)c2cnc3cc(F)c(-c4ccc(OCCCN5CCCCC5)nc4)cc3c21`: the IC50 was greater than 10 µM. In addition, where the note is “compound 0.0316 µM”, the viability, T/C was 103% and 107% and 118%. For the same molecule, under “compound 0.1 µM”, the viability, T/C was 133% and 106% and 113%. Further, the viability, T/C (compound 0.316 µM) was 104% and 103% and 109%. Moreover, the viability, T/C (compound 1 µM) was 103% and 118% and 107%. The viability, T/C (compound 3.16 µM) is 104% and 114% and 103%. The viability, T/C (compound 10 µM) was 104% and 108% and 105%.

For `CC1COCCN1c1cc(-c2ccnn2C)c2ccnc(-c3ccn[nH]3)c2n1` (stereo not drawn), the IC50 was 0.406 µM and 0.27 µM and 2.09 µM. In addition, the viability, T/C (compound 0.0316 µM) was 93.1% and 105% and 77.6%. For the same molecule, under “compound 0.1 µM”, the viability, T/C was 67.1% and 76.9% and 73.5%. Further, where the note is “compound 0.316 µM”, the viability, T/C was 55.3% and 44.6% and 61.7%. The viability, T/C (compound 1 µM) is 37.6% and 31.7% and 57.4%. Also, the viability, T/C (compound 3.16 µM) is 35.6% and 27.5% and 46%. The viability, T/C (compound 10 µM) was 25.1% and 22.8% and 38.4%.

As for `CC1COCCN1c1cc(C2(S(C)(=N)=O)CC2)nc(-c2ccnc3[nH]ccc23)n1` (stereo not drawn), the IC50 was 7.04 µM and > 10 µM and 7.94 µM. Besides, the viability, T/C (compound 0.0316 µM) was 93% and 90.1% and 105%. The viability, T/C (compound 0.1 µM) is 95.7% and 96.4% and 89.9%. Also, the viability, T/C (compound 0.316 µM) was 86.7% and 94.9% and 95.5%. The viability, T/C (compound 1 µM) is 75.4% and 89.4% and 93.3%. Further, for the setting “compound 3.16 µM”, the viability, T/C was 57.4% and 74.8% and 62%. Also, the viability, T/C (compound 10 µM) was 46.7% and 55.4% and 47%.

As for `CCCS(=O)(=O)Nc1ccc(F)c(C(=O)c2c[nH]c3ncc(-c4ccc(Cl)cc4)cc23)c1F`, the IC50 is > 10 µM and 3.36 µM. In addition, where the note is “compound 0.0316 µM”, the viability, T/C was 93.1% and 82.2% and 78.1%. Also, the viability, T/C (compound 0.1 µM) is 85.3% and 76.1% and 69.5%. In addition, the viability, T/C (compound 0.316 µM) was 85.1% and 71% and 76.2%. Besides, the viability, T/C (compound 1 µM) was 72% and 64.2% and 46.1%. For the same molecule, the viability, T/C (compound 3.16 µM) was 68.8% and 63.2% and 64.1%. Further, the viability, T/C (compound 10 µM) is 69.5% and 72.5% and 26.7%.

Regarding `CC[C@@]1(O)C(=O)OCc2c1cc1n(c2=O)Cc2cc3c(CN(C)C)c(O)ccc3nc2-1`, the IC50 was greater than 0.1 µM. In addition, the viability, T/C (compound 0.000316 µM) was 98.9% and 101% and 105%. Also, the viability, T/C (compound 0.001 µM) is 93.9% and 102% and 98.8%. Under “compound 0.00316 µM”, the viability, T/C was 77% and 92.2% and 116%. The viability, T/C (compound 0.01 µM) was 119% and 104% and 94.3%. Moreover, where the note is “compound 0.0316 µM”, the viability, T/C is 98.5% and 97.7% and 86.9%. For the same molecule, the viability, T/C (compound 0.1 µM) was 81.5% and 110% and 76.7%.

Turning to `CCc1c2c(nc3ccc(O)cc13)-c1cc3c(c(=O)n1C2)COC(=O)[C@]3(O)CC`, the viability, T/C runs as follows: (compound 0.00316 µM) 106% and 102% and 122%; (compound 0.01 µM) 69.4% and 103% and 64.5%; (compound 0.0316 µM) 63.4% and 83.3% and 72.2%; (compound 0.1 µM) 44.6% and 68.1% and 50.9%; (compound 0.316 µM) 31.1% and 69.5% and 42%; (compound 1 µM) 20% and 66.9% and 19.1%.

On to `CNCc1ccc(-c2[nH]c3cc(F)cc4c3c2CCNC4=O)cc1`, for which the IC50 is greater than 10 µM. For the same molecule, where the note is “compound 0.0316 µM”, the viability, T/C is 94% and 107% and 86.8%. Besides, the viability, T/C (compound 0.1 µM) was 89.3% and 94.2% and 86.3%. Moreover, under “compound 0.316 µM”, the viability, T/C is 113% and 102% and 114%. The viability, T/C (compound 1 µM) is 117% and 101% and 95.7%. Also, the viability, T/C (compound 3.16 µM) was 128% and 105% and 116%. The viability, T/C (compound 10 µM) is 125% and 115% and 151%.
